Experimental findings from patent US6548496B2, “Substituted 3-cyano-[1.7], [1.5], and [1.8] naphthyridine inhibitors of tyrosine kinases” (American Cyanamid Company, priority 1999, dated 2003) are described below.

pIC50: −log10 of the molar value. In brackets after ≈: the same amount, converted by molar mass.

One data set relates to SW620. Briefly: Inhibition of cancer cell growth by cell number, SW620. Type of data set: cell-based, Human. Particulars: Homo sapiens, SW-620; 48 hours exposure, Sulforhodamine B. How it is done:
(§1) Human tumor cell lines were plated in 96-well plates (250 μl/well, 1-6×10^4 cells/ml) in RPMI 1640 medium, containing 5% FBS (Fetal Bovine Serum). […] After 48 hours exposure to test compounds, cells were fixed with trichloroacetic acid, and stained with Sulforhodamine B. After washing with trichloroacetic acid, bound dye was solubilized in 10 mM Tris base and optical density was determined using a plate reader. Under conditions of the assay the optical density is proportional to the number of cells in the well. IC50s (concentrations causing 50% inhibition of cell growth) were determined from the growth inhibition plots. The test procedure is described in details by Philip Skehan et. at J. Natl. Canc. Inst., 82, 1107-1112 (1990). […] Information about some of the cell lines used in these test procedures is available from the American […]: Cell Lines and Hybridomas, 1994 Reference Guide, 8th Edition. The Her2Neu cell line is a 3T3 line that has bbeen transfected with Her2 receptor kinase.

The test system of the next data set is SKBR3. Briefly: Inhibition of cancer cell growth by cell number, SKBR3. Type of data set: cell-based, Human. The following applies: Homo sapiens, SK-BR-3; 48 hours exposure, Sulforhodamine B. How it is done: as §1
For another data set, the system named is A431. Briefly: Inhibition of cancer cell growth by cell number, A431. Type of data set: cell-based, Human. The following applies: Homo sapiens, A-431; 48 hours exposure, Sulforhodamine B. How it is done:
as §1

The next data set concerns A2780S. Briefly: Inhibition of cancer cell growth by cell number, A2780S. Type of data set: cell-based, Human. The following applies: Homo sapiens, A2780S; 48 hours exposure, Sulforhodamine B. How it is done:
as §1

The next data set deals with MDA435. Briefly: Inhibition of cancer cell growth by cell number, MDA435. Particulars: Homo sapiens, MDA435; 48 hours exposure, Sulforhodamine B. It is filed as cell-based, Human. How it is done: as §1
For another data set, the system named is A2780DDP. Briefly: Inhibition of cancer cell growth by cell number, A2780DDP. The following applies: Homo sapiens; 48 hours exposure, Sulforhodamine B. Type of data set: cell-based, Human. How it is done:
as §1

In data set [1] the target is Epithelial Cell Kinase (ECK) (Homo sapiens, UniProt P29317). Briefly: Inhibition of Epithelial Cell Kinase (ECK). Type of data set: biochemical. Particulars: biotinylated peptide substrate, HRP anti-phosphotyrosine readout, pH 7.2. Here is the method:
In this standard pharmacological test procedure, a biotinylated peptide substrate is first immobilized on neutravidin-coated microtiter plates. The test drug, the Epithelial Cell Kinase (ECK), Mg^++, sodium vanadate (a protein tyrosine phosphatase inhibitor), and an appropriate buffer to maintain pH (7.2) are then added to the immobilized substrate-containing microtiter wells. ATP is then added to initiate phosphorylation. After incubation, the assay plates are washed with a suitable buffer leaving behind phosphorylated peptide which is exposed to horse radish peroxidase (HRP)-conjugated anti-phosphotyrosine monoclonal antibody. The antibody-treated plates are washed again and the HRP activity in individual wells is quantified as a reflection of degree of substrate phosphorylation. This nonradioactive format was used to identify inhibitors of ECK tyrosine kinase activity where the IC50 is the concentration of drug that inhibits substrate phosphorylation by 50%. Multiple entries for a given compound indication it was tested multiple times.

Chain of Epithelial Cell Kinase (ECK) (P29317 24-976, species assumed): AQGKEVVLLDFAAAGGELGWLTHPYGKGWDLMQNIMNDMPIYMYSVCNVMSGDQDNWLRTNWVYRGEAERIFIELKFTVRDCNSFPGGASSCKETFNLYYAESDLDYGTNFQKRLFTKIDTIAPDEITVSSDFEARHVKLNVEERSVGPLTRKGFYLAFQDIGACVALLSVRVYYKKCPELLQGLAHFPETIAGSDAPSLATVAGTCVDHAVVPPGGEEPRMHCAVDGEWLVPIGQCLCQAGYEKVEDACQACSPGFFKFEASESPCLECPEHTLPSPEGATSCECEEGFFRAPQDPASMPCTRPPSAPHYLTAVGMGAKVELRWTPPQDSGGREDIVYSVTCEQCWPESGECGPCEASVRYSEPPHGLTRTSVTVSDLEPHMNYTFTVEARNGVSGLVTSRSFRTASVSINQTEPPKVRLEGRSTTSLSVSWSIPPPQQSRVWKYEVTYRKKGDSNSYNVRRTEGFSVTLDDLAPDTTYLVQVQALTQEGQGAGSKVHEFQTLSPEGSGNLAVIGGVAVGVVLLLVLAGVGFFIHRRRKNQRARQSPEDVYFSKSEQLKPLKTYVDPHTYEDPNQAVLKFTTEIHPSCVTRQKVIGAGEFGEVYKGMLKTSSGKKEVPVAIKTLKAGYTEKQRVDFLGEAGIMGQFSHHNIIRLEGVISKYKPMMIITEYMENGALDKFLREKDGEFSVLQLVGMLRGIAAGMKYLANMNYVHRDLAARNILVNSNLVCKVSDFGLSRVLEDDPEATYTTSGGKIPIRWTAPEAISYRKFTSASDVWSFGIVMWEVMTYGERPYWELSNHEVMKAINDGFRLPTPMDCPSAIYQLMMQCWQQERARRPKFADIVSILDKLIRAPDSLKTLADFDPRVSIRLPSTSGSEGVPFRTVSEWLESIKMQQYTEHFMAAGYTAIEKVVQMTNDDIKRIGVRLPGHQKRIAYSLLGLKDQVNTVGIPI

Take `C#Cc1cc2c(Nc3cccc(Br)c3)c(C#N)cnc2cn1` [Example 86, 4-(3-Bromo-phenylamino)-6-ethynyl-[1,7]naphthyridine-3-carbonitrile]: the melting point is 224 °C (dec.). Same read-out and setting: next, `N#Cc1cnc2cnc(Cl)cc2c1Nc1cccc(Br)c1` [Example 83, 4-(3-Bromo-phenylamino)-6-chloro-[1,7]naphthyridine-3-carbonitrile]: 220 to 223 °C.

As for `CN(C)CCOc1cc2c(Nc3ccc(F)c(Cl)c3)c(C#N)cnc2cn1` [Example 74, 4-(3-Chloro-4-fluoro-phenylamino)-6-(2-dimethylamino-ethoxy)-[1,7]naphthyridine-3-carbonitrile], the melting point lay in the range of 131 to 132 °C. As for `N#Cc1cnc2cnc(NCCN3CCOCC3)cc2c1Nc1cccc(Br)c1` [Example 63, 4-(3-Bromo-phenylamino)-6-(2-morpholino-4-yl-ethylamino)-[1,7]naphthyridine-3-carbonitrile], the melting point was 80 to 96 °C (dec.). For `CN(C)CC=CC(=O)Nc1cc2c(Nc3cccc(Br)c3)c(C#N)cnc2cn1` [Example 62, 4-Dimethylamino-but-2-enoic Acid, [4-(3-bromo-phenylamino)-3-cyano-[1,7]naphthyridin-6-yl]-amide], the melting point was 180 to 185 °C (dec.). The same compound returned an IC50 in the data set on SW620 of 0.356 µg/mL (≈ 0.789 µM). As to `CN(C)CCOc1cc2c(Nc3ccc(Cl)cc3F)c(C#N)cnc2cn1` [Example 76, 4-(4-Chloro-2-fluoro-phenylamino)-6-(2-dimethylamino-ethoxy)-[1,7]naphthyridine-3-carbonitrile], the melting point lay in the range of 150 to 152 °C.

Turning to `COc1ccc(CNc2cc3c(Nc4cccc(Br)c4)c(C#N)cnc3cn2)cc1` [Example 58, 4-(3-Bromo-phenylamino)-6-(4-methoxy-benzylamino)-[1,7]naphthyridine-3-carbonitrile], the melting point is 82 to 86 °C (dec.). With `N#Cc1cnc2cnc(F)cc2c1Nc1ccc(Cl)cc1Cl` [Example 68, 4-(2,4-Dichloro-phenylamino)-6-fluoro-[1,7]naphthyridine-3-carbonitrile], the melting point lay in the range of 206 to 208 °C. Consider `N#Cc1cnc2cnc(F)cc2c1Nc1cccc(Br)c1` [Example 57, 4-(3-Bromo-phenylamino)-6-fluoro-[1,7]naphthyridine-3-carbonitrile], for which the melting point lay in the range of 185 to 195 °C. As to `CNc1cc2c(Nc3cccc(Br)c3)c(C#N)cnc2cn1` [Example 64, 4-(3-Bromo-phenylamino)-6-methylamino-[1,7]naphthyridine-3-carbonitrile], the melting point was 250 °C (dec.). `CN(C)CCOc1cc2c(Nc3ccc(Oc4ccccc4)cc3)c(C#N)cnc2cn1` [Example 73, 6-(2-Dimethylamino-ethoxy)4(4-phenoxy-phenylamino)-[1,7]naphthyridine-3-carbonitrile] yielded a melting point of 159 to 161 °C. Turning to `C[Si](C)(C)C#Cc1cc2c(Nc3cccc(Br)c3)c(C#N)cnc2cn1` [Example 85, 4-(3-Bromo-phenylamino)-6-trimethylsilanylethynyl-[1,7]naphthyridine-3-carbonitrile], the melting point is 125 °C. In the data set on SKBR3, this compound had an IC50 of 3.59 µg/mL (≈ 8.52 µM). This compound registered an IC50 in the data set on A431 of 3.06 µg/mL (≈ 7.25 µM). Also, in the data set on SW620, the IC50 came to 4.72 µg/mL (≈ 11.2 µM). For the same compound, in the data set on A2780S, the midpoint of inhibition, the IC50, lay at 2.34 µg/mL (≈ 5.56 µM). For the same compound, 4.2 µg/mL (≈ 9.97 µM) corresponded to half-maximal inhibition with MDA435 (IC50). This compound also registered an IC50 in the data set with A2780DDP of 2.97 µg/mL (≈ 7.05 µM). `N#Cc1cnc2cnc(F)cc2c1Oc1ccc(Cl)cc1F` [Example 71, 4-(4-Chloro-2-fluoro-phenoxy)-6-fluoro-[1,7]naphthyridine-3-carbonitrile] showed a melting point of 186 to 188 °C. In turn, `N#Cc1cnc2cnc(F)cc2c1Nc1ccc(F)c(Cl)c1` [Example 69, 4-(3-Chloro-4-fluoro-phenylamino)-6-fluoro-[1,7]naphthyridine-3-carbonitrile] registered a melting point of 108 to 111 °C. Regarding `N#Cc1cnc2cnc(F)cc2c1Nc1ccc(Oc2ccccc2)cc1` [Example 67, 6-Fluoro-4-(4-phenoxy-phenylamino)-[1,7]naphthyridine-3-carbonitrile], the melting point lay in the range of 211 to 213 °C. As for `CC#CC(=O)Nc1cnc2ncc(C#N)c(Nc3cccc(Br)c3)c2c1` [Example 24, But-2-ynoic Acid [5-(3-bromo-phenylamino)-6-cyano-[1,8]-naphthyridin-3-yl]-amide], in data set [1], the negative logarithm of the IC50 (pIC50) is above 7.40. For the compound `CC#CC(=O)Nc1cc2c(Nc3cccc(Br)c3)c(C#N)cnc2cn1` [Example 61, But-2-ynoic Acid, [4-(3-bromo-phenylamino)-3-cyano-[1,7]naphthyridin-6-yl]-amide], the melting point is 255 °C (dec.). Still for that read-out and setting: the figure for `N#Cc1cnc2cnc(N)cc2c1Nc1cccc(Br)c1` [Example 59, 6-Amino-4-(3-bromo-phenylamino)-[1,7]naphthyridine-3-carbonitrile] is 185 to 190 °C (dec.). In the case of `Cc1ccc(Nc2c(C#N)cnc3cnc(F)cc23)cc1O` [Example 66, 6-Fluoro-4-(3-hydroxy-4-methyl-phenylamino)-[1,7]naphthyridine-3-carbonitrile], the melting point is 236 to 239 °C (dec.). This compound gave a pIC50 in data set [1] below 5.48.

As to `CN(C)CCOc1cc2c(Nc3cccc(Br)c3)c(C#N)cnc2cn1` [Example 77, 4-(3-Bromo-phenylamino)-6-(2-dimethylamino-ethoxy)-[1,7]naphthyridine-3-carbonitrile], the melting point was 138 to 139 °C. The same compound gave a pIC50 in data set [1] below 5.62.
